Columns and labels:
proteins of SKBR3 cells = assay: Identification of 11-labelled proteins in live cells (TMT quantitative LC-MSMS), all proteins; type: cell-based, human; conditions: 0.5 µM, 3 h, three ligand-specific targets and three off-targets
Description: (§1) The labelled proteins were enriched by immunoprecipitation with an anti-fluorescein antibody and tryptically digested in gel. Digested peptides were modified with Light- (L-), Medium- (M-), or Heavy- (H-) TMT reagent for samples treated with 11, 11 with PU-H71 (as competitive condition), or DMSO (vehicle), respectively, and mixed in a 1:1:1 ratio for LC-MSMS analysis. We performed three experimental replicates, in which proteins detected and quantified at least twice were selected as identified proteins. According to the related approach of Cravatt et al[44], the proteins having L/H (11/DMSO) ratios >5 were defined as 11-labelled proteins. […] On the basis of these criteria, we identified 6 proteins that react with 11, including three ligand-specific targets (Hsp90α (HSP90AA1), Hsp90β (HSP90AB1), and Grp94 (HSP90B1)) and three off-targets (Trifunctional enzyme subunit α (HADHA), Tubulin-α (TUBA1B), and ADP/ATP translocase 3 (SLC25A6)) (Fig. 5d, e and Supplementary Data 1). […] Grp94, a HSP90 isomer, was previously reported to be a PU-H71 specific target. TRAP-1, another Hsp90 isomer that can bind PU-H71, on the other hand, was not identified as 11-target by our criteria.
SKBR3 human breast cancer cells (2.0 × 10^6 cells) were seeded on a 10 cm dish and cultured for 3 days in McCoy’s 5A in a 5% CO2 humidified chamber at 37 °C. […]

[1] = system: Isoform 2 of Transketolase (TKT); assay: TMT LC-MSMS of 11-labelled proteins; type: cell-based, Homo sapiens
Description: as §1
(§2) SKBR3 human breast cancer cells (2.0 × 10^6 cells) were seeded on a 10 cm dish and cultured for 3 days in McCoy’s 5A in a 5% CO2 humidified chamber at 37 °C. […] As competitive experiments, the labelling was conducted in the presence of PU-H71 (10 µM). After labelling, the cells were washed twice with PBS, and lysed with RIPA buffer. […] The supernatant was mixed with chilled acetone and incubated overnight at −80 °C. The protein precipitates were solubilized by sonication in 1 mL of RIPA buffer containing 1% SDS, and then 10-fold diluted with RIPA buffer to reduce SDS concentration to c.a. 0.1%. The protein solution (containing 1 mg of protein) was mixed with Protein G Sepharose 4 Fast Flow (GE Healthcare) and rotated at 4 °C for 1 h. After removal of the beads, the remaining supernatant was mixed with anti-fluorescein antibody (Abcam, ab19491, 7:10000) and rotated at 4 °C for 1 h, followed by addition of fresh Protein G Sepharose 4 Fast Flow and further incubation at 4 °C for 4 h. The beads were washed five times with RIPA buffer and once with PBS. Proteins were eluted from the beads by addition of 2 × sample buffer containing 100 mM DTT and boiling at 95 °C for 5 min. The samples were subjected to a 7.5% SDS–PAGE gel (Mini-PROTEAN TGX Gels, BioRad), and electrophoresed as the migration distance of dye front is about 10 mm. Each lane was excised (height, 10 mm), and treated with a 47.5% methanol / 47.5% pure water / 5% acetic acid for 20 min, a 50% methanol / 50% pure water for 10 min, and in pure water for 10 min. The gel pieces were dehydrated with 100% acetonitrile, and then swelled with 200 μL of 100 mM TEAB (triethylamine bicarbonate) buffer containing 10 mM DTT and heated at 56 °C for 30 min. The solutions were replaced with 200 µL of 100 mM TEAB buffer containing 55 mM iodoacetamide and incubated for 45 min in the dark. The gel pieces were washed with 100 mM TEAB buffer and dehydrated in acetonitrile. This step was repeated once. The gels were reswelled in 100 mM TEAB buffer containing 10 ng/μL Sequencing Grade Trypsin (Promega) and incubated overnight at 37 °C. To the gels, 50 μL of an extraction solution (50% acetonitrile, 0.1% TFA) was added. After 10 min incubation, the supernatants were collected to new tubes, and this process was repeated twice. Extracted peptides were dried in vacuo and reconstituted with 25 μL of 100 mM TEAB buffer.

[2] = system: Isoform 4 of 4F2 cell-surface antigen heavy chain (SLC3A2); assay: TMT LC-MSMS of 11-labelled proteins; type: cell-based, Homo sapiens
Description: as §1, §2

[3] = system: Isoform Long of Glucose-6-phosphate 1-dehydrogenase (G6PD); assay: TMT LC-MSMS of 11-labelled proteins; type: cell-based, Homo sapiens
Description: as §1, §2

[4] = system: immunoglobulin gamma-1 heavy chain; assay: TMT LC-MSMS of 11-labelled proteins; type: cell-based, Homo sapiens
Description: Supplement 41467_2018_4343_MOESM4_ESM.xlsx, sheet "Exp3" | column: Abundance Ratio: (11) / (11 with PU-H71); Abundance Ratio: (11) / (DMSO); Abundances (Grouped): 11; Abundances (Grouped): 11 with PU-H71

[5] = sheet Exp1, SKBR3 cells, 11 0.5 µM 3 h vs DMSO
[6] = sheet Exp1, SKBR3 cells, 11 0.5 µM 3 h vs with PU-H71 10 µM
[7] = sheet Merged, SKBR3 cells, 11 0.5 µM 3 h vs DMSO
[8] = sheet Merged, SKBR3 cells, 11 0.5 µM 3 h vs with PU-H71 10 µM

CC(=O)Oc1ccc2c(c1)Oc1cc(OC(C)=O)ccc1C21OC(=O)c2cc(C(=O)NCCOCCOCCNC(=O)CCCC(=O)N(CC#N)S(=O)(=O)c3ccc(C(=O)NCCCn4c(Sc5cc6c(cc5I)OCO6)nc5c(N)ncnc54)cc3)ccc21 [compound 11]
number of proteins that react with 11 (L/H ratios >5) (proteins of SKBR3 cells): 6
Abundance Ratio: (11) / (11 with PU-H71) ([1]; Exp3, TKT): 0.724
Abundance Ratio: (11) / (DMSO) ([1]; Exp3, TKT): 1.695
Abundances (Grouped): 11 ([1]; Exp3, TKT): 45.6
Abundances (Grouped): 11 with PU-H71 ([1]; Exp3, TKT): 63
Abundance Ratio: (11) / (DMSO) [1, 5]: 2.131
Abundance Ratio: (11) / (11 with PU-H71) [1, 6]: 0.917
Abundance Ratio: (11) / (11 with PU-H71) ([1]; sheet Exp2, TKT): 0.939
Abundance Ratio: (11) / (DMSO) ([1]; sheet Exp2, TKT): 2.163
Abundances (Grouped): 11 ([1]; sheet Exp2, TKT): 103.4
Abundances (Grouped): 11 with PU-H71 ([1]; sheet Exp2, TKT): 110.1
Abundance Ratio: (11) / (DMSO) [1, 7]: 2.131
Abundance Ratio: (11) / (11 with PU-H71) [1, 8]: 0.917
Abundance Ratio: (11) / (11 with PU-H71) ([2]; Exp3, SLC3A2): 0.823
Abundance Ratio: (11) / (DMSO) ([2]; Exp3, SLC3A2): 3.728
Abundances (Grouped): 11 ([2]; Exp3, SLC3A2): 115.2
Abundances (Grouped): 11 with PU-H71 ([2]; Exp3, SLC3A2): 140
Abundance Ratio: (11) / (DMSO) [2, 5]: 3.951
Abundance Ratio: (11) / (11 with PU-H71) [2, 6]: 0.737
Abundance Ratio: (11) / (11 with PU-H71) ([2]; sheet Exp2, SLC3A2): 0.802
Abundance Ratio: (11) / (DMSO) ([2]; sheet Exp2, SLC3A2): 3.119
Abundances (Grouped): 11 ([2]; sheet Exp2, SLC3A2): 91.7
Abundances (Grouped): 11 with PU-H71 ([2]; sheet Exp2, SLC3A2): 114.4
Abundance Ratio: (11) / (DMSO) [2, 7]: 3.119
Abundance Ratio: (11) / (11 with PU-H71) [2, 8]: 0.802
Abundance Ratio: (11) / (DMSO) [3, 5]: 6.472
Abundance Ratio: (11) / (11 with PU-H71) [3, 6]: 0.948
Abundance Ratio: (11) / (11 with PU-H71) ([3]; sheet Exp2, G6PD): 0.848
Abundance Ratio: (11) / (DMSO) ([3]; sheet Exp2, G6PD): 1.663
Abundances (Grouped): 11 ([3]; sheet Exp2, G6PD): 63.2
Abundances (Grouped): 11 with PU-H71 ([3]; sheet Exp2, G6PD, with PU-H71): 74.5
Abundance Ratio: (11) / (DMSO) [3, 7]: 3.281
Abundance Ratio: (11) / (11 with PU-H71) [3, 8]: 0.897
Abundance Ratio: (11) / (11 with PU-H71) ([4]; Exp3): 0.809
Abundance Ratio: (11) / (DMSO) ([4]; Exp3): 0.806
Abundances (Grouped): 11 ([4]; Exp3): 6402
Abundances (Grouped): 11 with PU-H71 ([4]; Exp3, with PU-H71): 7910.4
